Key:
[1] = test system: HEK293T cells; test: Cell viability assay (Cell Titer Glo); type: cell-based, human
Protocol: HEK293T cells were seeded in 96-well clear bottom white plate (Corning) at 3×10^4 cells per well in 100 μL of DMEM medium and grown for 24 h. The cells were treated with 0.625, 1.25, 2.5, 5, 10, 20 and 40 μM of KB02-SLF or KB02-JQ1 (DMSO stock, final DMEM concentration is 0.1% (v/v)) in 100 μL of DMEM medium for 24 h. 50 μL of Cell Titer Glo reagent (Promega) was added to each well and incubate for 10 min at room temperature. The luminescence was read on CLARIOstar (BMG LAB TECH).

[2] = target: FLAG-FKBP12_NLS (Homo sapiens, UniProt P62942); test: Western blot of FLAG-FKBP12_NLS in DCAF16+/+ and DCAF16−/− HEK293 clones; type: cell-based; set-up: expressed in transfected cells; host or cells: HEK293 DCAF16+/+ and DCAF16-/- clones (lentiviral pCDH-CMV-MCS-EF1-Puro)
Sequence of FLAG-FKBP12_NLS (P62942 with tags, fused parts or gaps): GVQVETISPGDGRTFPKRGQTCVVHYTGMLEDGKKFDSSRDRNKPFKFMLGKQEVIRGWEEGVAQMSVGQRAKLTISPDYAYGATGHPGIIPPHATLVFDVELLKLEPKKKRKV
Protocol: DCAF16 CRISPR knockout HEK293 cell pools were generated by Synthego using nucleofection of Cas9-gRNA ribonucleoprotein (RNP) complex. Editing efficiency 48 h post nucleofection of cell pool was 88%. HEK293 editing cell pools were subjected to single cell sorting in The Flow Cytometry Core Facility at Scripps Research. Individual cell clone was grown in 96-well plate until the cells were confluent. To confirm the editing in DCAF16 gene, genomic DNAs from each clone were extracted using PureLink Genomic DNA Mini Kit (Invitrogen). DCAF16 gene was amplified by PCR and confirmed by DNA sequencing. Indel analysis was performed using ICE analysis from Synthego.
To confirm DCAF16 knockout at the protein level, lentivirus containing FLAG-FKBP12_NLS was used to infect three wild type DCAF16 clones (clone 6, 17, 18) and three DCAF16 knockout clones (clone 3, 4, 22). Clone 6 stably expressing FLAG-FKBP12_NLS was grown in heavy SILAC DMEM medium for 5 generations. The other clones stably expressing FLAG-FKBP12_NLS were grown in light SILAC DMEM medium for 5 generations. All 6 clones were treated with 5 μM KB02-SLF and 10 μM MG132 for 2 h. Cells were collected and analyzed for FLAG-FKBP12_NLS associating proteins using the same method described below. Proteins from clone 6 (heavy labeled) were combined with the other clones (light labeled) separately and identified by LC-MS/MS.
Cells were collected and lysed in 1% NP-40 lysis buffer (25 mM Tris-HCl pH 7.4, 150 mM NaCl, 10% glycerol, 1% Nonidet P-40) with complete protease inhibitor cocktail (Roche). Cells were vortexed and sonicated for 5 pulses (40%, 4). The supernatant was collected after centrifugation at 16,000 g for 10 min at 4° C. Protein concentration was determined by DC assay (Bio-Rad). Protein lysate was heated at 95° C. for 5 min in 1× Laemmli sample buffer. Proteins were resolved by 12% or 14% Novex Tris-Glycine Mini Gels (Invitrogen) and transferred to polyvinylidene fluoride (PVDF) membrane (0.2 Bio-Rad). The membrane was blocked with 5% BSA in TBST buffer (0.1% Tween 20, 20 mM Tris-HCl 7.6, 150 mM NaCl) at room temperature for 1 h. The antibody was diluted with fresh 5% BSA in TBST buffer (1:10000 dilution for FLAG, HA and β-Actin, 1:1000 dilution for others) and incubated with membrane (1 h room temperature for FLAG, HA and β-Actin, overnight 4° C. for others). Membrane was washed three times with TBST buffer and incubated with secondary antibody (1:5000 dilution in 5% BSA in TBST) at room temperature for 1 h. Membrane was washed three times with TBST buffer. The chemiluminescence signal in membrane was recorded after developing in ECL or ECL plus western blotting detection reagent using CL-XPosure film (Thermo Scientific). Relative band intensities were quantified using ImageJ.

[3] = target: T1, HA-DCAF16 and FLAG-FKBP12_NLS (Homo sapiens, UniProt P62942+Q9NXF7); test: Co-immunoprecipitation of HA-DCAF16 with FLAG-FKBP12_NLS (ternary complex) in HEK293T cells; type: cell-based; conditions: MG132 10 μM
T1 construct: expressed in transfected cells; host or cells: HEK293T stably expressing FLAG-FKBP12_NLS, transiently transfected with HA-DCAF16 (pRK5)
T1 sequence (Q9NXF7 whole entry): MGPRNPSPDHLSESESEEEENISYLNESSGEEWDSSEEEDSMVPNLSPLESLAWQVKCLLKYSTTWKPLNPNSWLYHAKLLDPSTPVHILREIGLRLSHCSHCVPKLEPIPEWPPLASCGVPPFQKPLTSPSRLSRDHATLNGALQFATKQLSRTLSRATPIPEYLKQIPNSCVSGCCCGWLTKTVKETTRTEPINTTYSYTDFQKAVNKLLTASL
T1 sequence (P62942 2-108): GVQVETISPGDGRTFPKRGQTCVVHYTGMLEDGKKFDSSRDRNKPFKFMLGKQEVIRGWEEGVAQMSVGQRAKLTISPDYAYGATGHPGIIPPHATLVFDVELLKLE
T1 sequence (Q16531 whole entry partner): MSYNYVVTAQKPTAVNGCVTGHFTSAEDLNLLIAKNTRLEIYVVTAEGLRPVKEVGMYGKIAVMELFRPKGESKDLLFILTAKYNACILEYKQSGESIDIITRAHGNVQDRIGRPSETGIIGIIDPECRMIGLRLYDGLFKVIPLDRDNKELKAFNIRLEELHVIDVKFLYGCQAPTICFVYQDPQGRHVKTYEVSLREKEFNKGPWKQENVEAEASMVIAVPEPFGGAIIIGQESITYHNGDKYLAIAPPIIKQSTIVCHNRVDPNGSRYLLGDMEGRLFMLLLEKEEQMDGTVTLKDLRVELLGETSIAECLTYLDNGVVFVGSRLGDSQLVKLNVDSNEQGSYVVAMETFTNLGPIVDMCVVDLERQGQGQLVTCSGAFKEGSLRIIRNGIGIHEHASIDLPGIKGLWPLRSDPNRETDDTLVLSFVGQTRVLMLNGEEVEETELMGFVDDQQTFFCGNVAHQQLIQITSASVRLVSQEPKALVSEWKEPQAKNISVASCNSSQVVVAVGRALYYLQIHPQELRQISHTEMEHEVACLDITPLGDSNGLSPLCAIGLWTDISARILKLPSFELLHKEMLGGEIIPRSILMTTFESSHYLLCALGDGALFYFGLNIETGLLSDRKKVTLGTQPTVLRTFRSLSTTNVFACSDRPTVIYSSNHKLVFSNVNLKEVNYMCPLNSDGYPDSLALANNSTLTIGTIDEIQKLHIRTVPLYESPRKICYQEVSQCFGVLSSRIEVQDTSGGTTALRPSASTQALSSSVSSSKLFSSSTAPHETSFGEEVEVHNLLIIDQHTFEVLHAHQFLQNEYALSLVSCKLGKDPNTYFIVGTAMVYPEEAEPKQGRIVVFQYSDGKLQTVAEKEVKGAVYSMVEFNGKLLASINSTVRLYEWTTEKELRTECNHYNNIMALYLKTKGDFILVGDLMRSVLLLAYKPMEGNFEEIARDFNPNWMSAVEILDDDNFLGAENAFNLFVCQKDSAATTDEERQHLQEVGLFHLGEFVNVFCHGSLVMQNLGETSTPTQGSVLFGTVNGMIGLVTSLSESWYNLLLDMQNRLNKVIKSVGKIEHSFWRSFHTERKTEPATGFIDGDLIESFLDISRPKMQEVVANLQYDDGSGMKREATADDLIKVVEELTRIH

## CCC(C)(C)C(=O)C(=O)N1CCCC[C@H]1C(=O)O[C@H](CCc1ccc(OC)c(OC)c1)c1cccc(NC(=O)CCOCCOCCNC(=O)COc2ccc3c(c2)CCCN3C(=O)CCl)c1 [KB02-SLF, (R)-1-(3-(3-(2-(2-(2-((1-(2-chloroacetyl)-1,2,3,4-tetrahydroquinolin-6-yl)oxy)acetamido)ethoxy)ethoxy)propanamido)phenyl)-3-(3,4-dimethoxyphenyl)propyl (S)-1-(3,3-dimethyl-2-oxopentanoyl)piperidine-2-carboxylate]
[1]
  test concentrations with evidence of cytotoxicity: > 10 µM
[2]; HEK293 clones 3, 4, 22, 0.2-5 μM, 8 h
  degradation of FKBP12_NLS in DCAF16−/− clones: not in any of the three DCAF16−/− clones
[2]; HEK293 clones 6, 17, 18, 0.2-5 μM, 8 h
  degradation of FKBP12_NLS in DCAF16+/+ clones: supported the degradation of FKBP12_NLS in all three DCAF16+/+ clones
[2]; KB02-SLF 1.5 μM, 8 hours
  FKBP12_NLS degradation in DCAF16−/− cells expressing C58S-, C173S- or C178S-DCAF16: supported KB02-SLF-induced degradation of FKBP12_NLS
  FKBP12_NLS degradation in DCAF16−/− cells with recombinant HA-DCAF16: restored KB02-SLF-induced FKBP12_NLS degradation
[3]; 5 μM, 2 hours
  co-immunoprecipitation of HA-DCAF16 with FLAG-FKBP12_NLS: HA-DCAF16 and DDB1 co-immunoprecipitated with FLAG-FKBP12_NLS
[3]; increasing concentrations of KB02-SLF, 2 h
  conversion of HA-DCAF16 to higher molecular weight (HMW) form: Only a modest fraction of HA-DCAF16 was converted to this HMW

Source: US11691984B2, “Compounds and methods for DCAF-mediated protein degradation” (The Scripps Research Institute, priority 2018, dated 2023)
